Tests used:
R2351Q mPIEZO1 = molecular target: T1, R2351Q mPIEZO1 (Mus musculus, UniProt E2JF22, R2351Q); experiment: Intracellular Ca2+ measurement (fura-2), T-REx-293 cells stably transfected; assay type: cell-based
T1 construct: expressed in transfected cells

WT mPIEZO1 = molecular target: T2, WT mPIEZO1 (Mus musculus, UniProt E2JF22); experiment: as above; assay type: cell-based; details: 1.5 min exposure
T2 construct: expressed in transfected cells

G1994D mPIEZO1 = molecular target: T3, G1994D mPIEZO1 (Mus musculus, UniProt E2JF22, G1994D); experiment: as above; assay type: cell-based; details: for Mean normalise fluorescence (Figure 5d): G1994D
T3 construct: expressed in transfected cells

mice = details: cited from earlier work
[1] = long (20 min) exposure, normalized to 3 μM Yoda1

T3 sequence (E2JF22 whole entry G1994D): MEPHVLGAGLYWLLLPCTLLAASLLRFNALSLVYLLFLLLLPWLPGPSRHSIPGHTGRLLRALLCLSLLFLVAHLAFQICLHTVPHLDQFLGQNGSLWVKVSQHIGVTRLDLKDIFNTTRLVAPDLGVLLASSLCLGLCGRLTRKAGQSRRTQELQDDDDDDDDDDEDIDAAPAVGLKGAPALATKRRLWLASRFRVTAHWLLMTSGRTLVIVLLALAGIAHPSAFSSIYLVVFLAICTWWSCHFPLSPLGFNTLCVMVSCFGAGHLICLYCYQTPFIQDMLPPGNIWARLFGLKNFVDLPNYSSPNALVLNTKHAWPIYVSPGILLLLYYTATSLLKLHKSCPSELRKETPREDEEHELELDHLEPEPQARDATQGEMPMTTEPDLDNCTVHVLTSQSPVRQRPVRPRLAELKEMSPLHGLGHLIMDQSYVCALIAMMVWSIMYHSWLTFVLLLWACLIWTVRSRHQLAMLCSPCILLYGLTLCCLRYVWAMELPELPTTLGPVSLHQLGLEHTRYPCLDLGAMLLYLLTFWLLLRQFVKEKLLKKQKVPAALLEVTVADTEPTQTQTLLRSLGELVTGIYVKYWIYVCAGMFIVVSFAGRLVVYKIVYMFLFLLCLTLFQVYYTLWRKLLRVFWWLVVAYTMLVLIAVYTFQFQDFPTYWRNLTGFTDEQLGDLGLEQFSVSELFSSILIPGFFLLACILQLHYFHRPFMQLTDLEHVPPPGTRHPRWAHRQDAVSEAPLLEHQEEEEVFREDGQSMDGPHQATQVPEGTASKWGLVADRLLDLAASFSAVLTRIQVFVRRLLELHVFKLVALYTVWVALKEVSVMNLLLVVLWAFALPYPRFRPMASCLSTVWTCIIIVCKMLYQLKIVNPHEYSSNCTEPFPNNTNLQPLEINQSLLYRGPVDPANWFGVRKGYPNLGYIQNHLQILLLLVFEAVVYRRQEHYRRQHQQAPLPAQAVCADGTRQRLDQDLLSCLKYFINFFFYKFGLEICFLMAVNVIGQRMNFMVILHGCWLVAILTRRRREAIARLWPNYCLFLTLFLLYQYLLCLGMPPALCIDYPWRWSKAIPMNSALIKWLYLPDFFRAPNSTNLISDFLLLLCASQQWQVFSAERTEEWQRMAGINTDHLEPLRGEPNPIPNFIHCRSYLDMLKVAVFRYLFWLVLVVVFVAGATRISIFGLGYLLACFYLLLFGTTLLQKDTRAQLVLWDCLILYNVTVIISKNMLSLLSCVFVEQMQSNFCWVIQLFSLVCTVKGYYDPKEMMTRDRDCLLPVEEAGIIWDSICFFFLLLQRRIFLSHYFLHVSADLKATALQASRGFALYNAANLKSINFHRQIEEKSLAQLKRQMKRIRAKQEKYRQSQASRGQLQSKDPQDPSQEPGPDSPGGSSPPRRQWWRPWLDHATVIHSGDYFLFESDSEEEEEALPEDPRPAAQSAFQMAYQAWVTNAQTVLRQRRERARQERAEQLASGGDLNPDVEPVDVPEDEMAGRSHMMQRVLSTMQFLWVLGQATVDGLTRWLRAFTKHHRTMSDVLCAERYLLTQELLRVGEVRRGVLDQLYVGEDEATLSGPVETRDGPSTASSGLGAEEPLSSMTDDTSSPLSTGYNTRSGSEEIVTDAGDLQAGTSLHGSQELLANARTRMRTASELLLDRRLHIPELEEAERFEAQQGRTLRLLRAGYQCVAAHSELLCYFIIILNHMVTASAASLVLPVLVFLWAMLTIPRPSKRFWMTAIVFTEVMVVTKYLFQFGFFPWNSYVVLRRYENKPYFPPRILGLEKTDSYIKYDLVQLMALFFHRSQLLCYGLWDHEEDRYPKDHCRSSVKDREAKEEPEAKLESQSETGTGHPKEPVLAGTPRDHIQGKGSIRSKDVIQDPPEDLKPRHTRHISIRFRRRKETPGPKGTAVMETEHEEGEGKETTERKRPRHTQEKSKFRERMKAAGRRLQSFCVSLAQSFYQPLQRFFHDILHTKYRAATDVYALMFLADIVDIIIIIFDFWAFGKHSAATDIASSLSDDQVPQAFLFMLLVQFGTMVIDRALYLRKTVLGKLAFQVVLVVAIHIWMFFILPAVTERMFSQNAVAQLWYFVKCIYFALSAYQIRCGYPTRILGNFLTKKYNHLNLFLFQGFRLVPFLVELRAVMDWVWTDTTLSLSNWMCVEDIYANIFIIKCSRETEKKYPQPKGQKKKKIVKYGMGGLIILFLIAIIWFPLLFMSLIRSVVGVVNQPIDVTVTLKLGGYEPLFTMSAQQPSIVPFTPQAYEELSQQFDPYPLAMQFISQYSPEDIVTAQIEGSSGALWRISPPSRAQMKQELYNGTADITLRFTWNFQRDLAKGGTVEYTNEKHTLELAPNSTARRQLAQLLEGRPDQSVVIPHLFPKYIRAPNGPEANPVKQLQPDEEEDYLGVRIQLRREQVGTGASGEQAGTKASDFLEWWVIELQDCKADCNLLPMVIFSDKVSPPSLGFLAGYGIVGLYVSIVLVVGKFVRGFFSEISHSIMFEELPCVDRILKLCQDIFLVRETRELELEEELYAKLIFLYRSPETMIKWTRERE
T1 sequence (E2JF22 whole entry R2351Q): as the sequence (E2JF22 whole entry G1994D) above, with D1994G, R2351Q counted along it
T2 sequence (E2JF22 whole entry): as the sequence (E2JF22 whole entry G1994D) above, with D1994G counted along it

Clc1cccc(Cl)c1CSc1nnc(-c2cnccn2)s1 [Yoda1]
Mean (Ca2+ signal time course, Figure 4f) (R2351Q mPIEZO1; R2351Q, 0.3 µM, time 0 s): -0.00579
Mean (Ca2+ signal time course, Figure 4f) (R2351Q mPIEZO1; R2351Q, 0.3 µM, time 5 s): 0.00313
Mean (Ca2+ signal time course, Figure 4f) (R2351Q mPIEZO1; R2351Q, 0.3 µM, time 10 s): -0.01466
Mean (Ca2+ signal time course, Figure 4f) (R2351Q mPIEZO1; R2351Q, 0.3 µM, time 15 s): 0.00749
Mean (Ca2+ signal time course, Figure 4f) (R2351Q mPIEZO1; R2351Q, 0.3 µM, time 20 s): 0.00732
Mean (Ca2+ signal time course, Figure 4f) (R2351Q mPIEZO1; R2351Q, 0.3 µM, time 25 s): 0.00251
Mean (Ca2+ signal time course, Figure 4f) (R2351Q mPIEZO1; R2351Q, 0.3 µM, time 30 s): -0.3502
Mean (Ca2+ signal time course, Figure 4f) (R2351Q mPIEZO1; R2351Q, 0.3 µM, time 35 s): 0.104
Mean (Ca2+ signal time course, Figure 4f) (R2351Q mPIEZO1; R2351Q, 0.3 µM, time 40 s): 0.09692
Mean (Ca2+ signal time course, Figure 4f) (R2351Q mPIEZO1; R2351Q, 0.3 µM, time 45 s): 0.1007
Mean (Ca2+ signal time course, Figure 4f) (R2351Q mPIEZO1; R2351Q, 0.3 µM, time 50 s): 0.1032
Mean (Ca2+ signal time course, Figure 4f) (R2351Q mPIEZO1; R2351Q, 0.3 µM, time 55 s): 0.1237
Mean (Ca2+ signal time course, Figure 4f) (R2351Q mPIEZO1; R2351Q, 0.3 µM, time 60 s): 0.09438
Mean (Ca2+ signal time course, Figure 4f) (R2351Q mPIEZO1; R2351Q, 0.3 µM, time 65 s): 0.1134
Mean (Ca2+ signal time course, Figure 4f) (R2351Q mPIEZO1; R2351Q, 0.3 µM, time 70 s): 0.1058
Mean (Ca2+ signal time course, Figure 4f) (R2351Q mPIEZO1; R2351Q, 0.3 µM, time 75 s): 0.1024
Mean (Ca2+ signal time course, Figure 4f) (R2351Q mPIEZO1; R2351Q, 0.3 µM, time 80 s): 0.1081
Mean (Ca2+ signal time course, Figure 4f) (R2351Q mPIEZO1; R2351Q, 0.3 µM, time 85 s): 0.0998
Mean (Ca2+ signal time course, Figure 4f) (R2351Q mPIEZO1; R2351Q, 0.3 µM, time 90 s): 0.09979
Mean (Ca2+ signal time course, Figure 4f) (R2351Q mPIEZO1; R2351Q, 0.3 µM, time 95 s): 0.1117
Mean (Ca2+ signal time course, Figure 4f) (R2351Q mPIEZO1; R2351Q, 0.3 µM, time 100 s): 0.1219
Mean (Ca2+ signal time course, Figure 4f) (R2351Q mPIEZO1; R2351Q, 0.3 µM, time 105 s): 0.1074
Mean (Ca2+ signal time course, Figure 4f) (R2351Q mPIEZO1; R2351Q, 0.3 µM, time 110 s): 0.1111
Mean (Ca2+ signal time course, Figure 4f) (R2351Q mPIEZO1; R2351Q, 0.3 µM, time 115 s): 0.1145
Mean (Ca2+ signal time course, Figure 4f) (R2351Q mPIEZO1; R2351Q, 0.3 µM, time 120 s): 0.1043
Mean (Ca2+ signal time course, Figure 4f) (R2351Q mPIEZO1; R2351Q, 0.3 µM, time 125 s): 0.1036
Mean (Ca2+ signal time course, Figure 4f) (R2351Q mPIEZO1; R2351Q, 0.3 µM, time 130 s): 0.08711
Mean (Ca2+ signal time course, Figure 4f) (R2351Q mPIEZO1; R2351Q, 3 µM, time 0 s): -0.0026
Mean (Ca2+ signal time course, Figure 4f) (R2351Q mPIEZO1; R2351Q, 3 µM, time 5 s): -0.00676
Mean (Ca2+ signal time course, Figure 4f) (R2351Q mPIEZO1; R2351Q, 3 µM, time 10 s): -0.01186
Mean (Ca2+ signal time course, Figure 4f) (R2351Q mPIEZO1; R2351Q, 3 µM, time 15 s): -0.00542
Mean (Ca2+ signal time course, Figure 4f) (R2351Q mPIEZO1; R2351Q, 3 µM, time 20 s): 0.01045
Mean (Ca2+ signal time course, Figure 4f) (R2351Q mPIEZO1; R2351Q, 3 µM, time 25 s): 0.0162
Mean (Ca2+ signal time course, Figure 4f) (R2351Q mPIEZO1; R2351Q, 3 µM, time 30 s): -0.5301
Mean (Ca2+ signal time course, Figure 4f) (R2351Q mPIEZO1; R2351Q, 3 µM, time 35 s): -0.09017
Mean (Ca2+ signal time course, Figure 4f) (R2351Q mPIEZO1; R2351Q, 3 µM, time 40 s): 0.3419
Mean (Ca2+ signal time course, Figure 4f) (R2351Q mPIEZO1; R2351Q, 3 µM, time 45 s): 0.4568
Mean (Ca2+ signal time course, Figure 4f) (R2351Q mPIEZO1; R2351Q, 3 µM, time 50 s): 0.5783
Mean (Ca2+ signal time course, Figure 4f) (R2351Q mPIEZO1; R2351Q, 3 µM, time 55 s): 0.623
Mean (Ca2+ signal time course, Figure 4f) (R2351Q mPIEZO1; R2351Q, 3 µM, time 60 s): 0.705
Mean (Ca2+ signal time course, Figure 4f) (R2351Q mPIEZO1; R2351Q, 3 µM, time 65 s): 0.7592
Mean (Ca2+ signal time course, Figure 4f) (R2351Q mPIEZO1; R2351Q, 3 µM, time 70 s): 0.7946
Mean (Ca2+ signal time course, Figure 4f) (R2351Q mPIEZO1; R2351Q, 3 µM, time 75 s): 0.8127
Mean (Ca2+ signal time course, Figure 4f) (R2351Q mPIEZO1; R2351Q, 3 µM, time 80 s): 0.8608
Mean (Ca2+ signal time course, Figure 4f) (R2351Q mPIEZO1; R2351Q, 3 µM, time 85 s): 0.9118
Mean (Ca2+ signal time course, Figure 4f) (R2351Q mPIEZO1; R2351Q, 3 µM, time 90 s): 0.9125
Mean (Ca2+ signal time course, Figure 4f) (R2351Q mPIEZO1; R2351Q, 3 µM, time 95 s): 0.9634
Mean (Ca2+ signal time course, Figure 4f) (R2351Q mPIEZO1; R2351Q, 3 µM, time 100 s): 1.007
Mean (Ca2+ signal time course, Figure 4f) (R2351Q mPIEZO1; R2351Q, 3 µM, time 105 s): 0.9869
Mean (Ca2+ signal time course, Figure 4f) (R2351Q mPIEZO1; R2351Q, 3 µM, time 110 s): 1.018
Mean (Ca2+ signal time course, Figure 4f) (R2351Q mPIEZO1; R2351Q, 3 µM, time 115 s): 0.9551
Mean (Ca2+ signal time course, Figure 4f) (R2351Q mPIEZO1; R2351Q, 3 µM, time 120 s): 0.9921
Mean (Ca2+ signal time course, Figure 4f) (R2351Q mPIEZO1; R2351Q, 3 µM, time 125 s): 1.006
Mean (Ca2+ signal time course, Figure 4f) (R2351Q mPIEZO1; R2351Q, 3 µM, time 130 s): 0.9688
Mean normalise fluorescence (R2351Q mPIEZO1; R2351Q, 20 min exposure, Yoda1 0.03 µM, Figure 4d): 0.08092
Mean normalise fluorescence (R2351Q mPIEZO1; R2351Q, 20 min exposure, Yoda1 0.1 µM, Figure 4d): -0.0159
Mean normalise fluorescence (R2351Q mPIEZO1; R2351Q, 20 min exposure, Yoda1 0.3 µM, Figure 4d): 0.3248
Mean normalise fluorescence (R2351Q mPIEZO1; R2351Q, 20 min exposure, Yoda1 1 µM, Figure 4d): 0.9747
Mean normalise fluorescence (R2351Q mPIEZO1; R2351Q, 20 min exposure, Yoda1 3 µM, Figure 4d): 1
Mean normalise fluorescence (R2351Q mPIEZO1; R2351Q, 20 min exposure, Yoda1 10 µM, Figure 4d): 0.9987
EC50 (R2351Q mPIEZO1; [1]): 420 nM
Mean normalise fluorescence (R2351Q mPIEZO1; short 1.5-min exposure, 0.03 µM): 0.00392
Mean normalise fluorescence (R2351Q mPIEZO1; short 1.5-min exposure, 0.1 µM): 5.49E-04
Mean normalise fluorescence (R2351Q mPIEZO1; short 1.5-min exposure, 0.3 µM): 0.02154
Mean normalise fluorescence (R2351Q mPIEZO1; short 1.5-min exposure, 1 µM): 0.1259
Mean normalise fluorescence (R2351Q mPIEZO1; short 1.5-min exposure, 3 µM): 0.401
Mean normalise fluorescence (R2351Q mPIEZO1; short 1.5-min exposure, 5 µM): 0.6595
Mean normalise fluorescence (R2351Q mPIEZO1; short 1.5-min exposure, 10 µM): 1
Effect on mPIEZO1 channel function (R2351Q mPIEZO1; versus WT): loss of MA: LOF; reduced Y1 potency
Mean normalise fluorescence (WT mPIEZO1; 0.01 µM): 0.01111
Mean normalise fluorescence (WT mPIEZO1; 0.03 µM): 0.04107
Mean normalise fluorescence (WT mPIEZO1; 0.1 µM): 0.2255
Mean normalise fluorescence (WT mPIEZO1; 0.3 µM): 0.6112
Mean normalise fluorescence (WT mPIEZO1; 1 µM): 0.8879
Mean normalise fluorescence (WT mPIEZO1; 3 µM): 0.9862
Mean normalise fluorescence (WT mPIEZO1; 5 µM): 1.0356
Mean normalise fluorescence (WT mPIEZO1; 10 µM): 1
EC50 (WT mPIEZO1; fitted Hill equation): 240 nM
Mean normalise fluorescence (Figure 5d) (G1994D mPIEZO1; Yoda1 concentration 0.01 µM): 0.00218
Mean normalise fluorescence (Figure 5d) (G1994D mPIEZO1; Yoda1 concentration 0.03 µM): 0.00674
Mean normalise fluorescence (Figure 5d) (G1994D mPIEZO1; Yoda1 concentration 0.1 µM): 0.01862
Mean normalise fluorescence (Figure 5d) (G1994D mPIEZO1; Yoda1 concentration 0.3 µM): 0.1159
Mean normalise fluorescence (Figure 5d) (G1994D mPIEZO1; Yoda1 concentration 1 µM): 0.3636
Mean normalise fluorescence (Figure 5d) (G1994D mPIEZO1; Yoda1 concentration 3 µM): 0.6853
Mean normalise fluorescence (Figure 5d) (G1994D mPIEZO1; Yoda1 concentration 5 µM): 0.8762
Mean normalise fluorescence (Figure 5d) (G1994D mPIEZO1; Yoda1 concentration 10 µM): 1
EC50 (G1994D mPIEZO1; [1]): 310 nM
Effect on mPIEZO1 channel function (G1994D mPIEZO1; versus WT): reduced MA: LOF; reduced inactivation: GOF; reduced Y1 potency
lymphatic valve formation (mice; WT mice): accelerated lymphatic valve formation
adverse effects of injection (mice; mice injected): mostly not been adversely affected
effect on edemas (mice; mice): reduce peripheral and central edemas
meningeal lymphatic network function (mice; mice): restored meningeal lymphatic network function
postsurgical lymphedema (mice; mice): suppressed postsurgical lymphedema
cerebrospinal fluid accumulation and ventricular enlargement (mice; mouse models of Down syndrome): decreased pathological cerebrospinal fluid accumulation and ventricular enlargement

Source: publication PMC12337661, “PIEZO1 mechanical insensitivity in generalized lymphatic dysplasia with the potential for pharmacological rescue” (iScience, 2025)
